Experimental data from PubChem BioAssay AID2740 (NMMLSC, 2010).
Calls of active or inactive are those of the source.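 The calls were made as follows: active = compounds whose fitted half-maximal concentration for changing the GFP signal is at or below a set limit; inactive = the rest.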

assay: TOR pathway RPL19A-GFP modulators, concentration series – cell-based, S. cerevisiae, flow cytometry, MLPCN hits, dose response (AID 2740);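 also: background is signal of the same compound in parental non-GFP s288c yeast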; conditions: S. cerevisiae RPL19A-GFP strain, flow cytometry fluorescence, 3 h; at 33 µM (top of the series)

For `C=CCN1C(=O)/C(=C/c2cccs2)C(=O)NC1=S`, which GFP fluorescence, lower = active (kMESF (background-subtracted)) is on record?
The GFP fluorescence, lower = active (kMESF (background-subtracted)) was 15.8 (inactive).

Which GFP fluorescence, lower = active (kMESF (background-subtracted)) does the source give for `COc1cc(NC(=O)c2ccccc2[N+](=O)[O-])ccc1NC(=O)c1cc2ccccc2o1` here?
The GFP fluorescence, lower = active (kMESF (background-subtracted)) was 39.2 (inactive).

Which GFP fluorescence, lower = active (kMESF (background-subtracted)) does the source give for `N/C(Cc1ccc(Cl)cc1)=N\OC(=O)c1cccc2ccccc12` here?
Its GFP fluorescence, lower = active (kMESF (background-subtracted)) is 45.3 (inactive).

With `CC(=O)NN1C(=O)/C(=C/c2ccc(Br)o2)SC1=S` as the compound, how does the GFP fluorescence, lower = active (kMESF (background-subtracted)) read?
The GFP fluorescence, lower = active (kMESF (background-subtracted)) was 40.5 (inactive).

Which GFP fluorescence, lower = active (kMESF (background-subtracted)) does the source give for `O=C(COc1ccccc1)NNC(=S)NC(=O)c1ccc(Cl)cc1Cl` here?
Its GFP fluorescence, lower = active (kMESF (background-subtracted)) is 28 (inactive).

Which GFP fluorescence, lower = active (kMESF (background-subtracted)) does the source give for `CC1=C/C(=N\OS(=O)(=O)c2ccccc2)C(C(C)C)=CC1=O` here?
The GFP fluorescence, lower = active (kMESF (background-subtracted)) was 21.4 (inactive).

Which GFP fluorescence, lower = active (kMESF (background-subtracted)) does the source give for `CN(c1ccccc1)c1ccc(/C=c2\s/c(=C(/C#N)C(=O)C(C)(C)C)n(Cc3ccco3)c2=O)cc1` here?
Its GFP fluorescence, lower = active (kMESF (background-subtracted)) is 56 (inactive).

With `CC1=C(C)/C(=N\OS(=O)(=O)c2ccccc2)C=CC1=O` as the compound, how does the GFP fluorescence, lower = active (kMESF (background-subtracted)) read?
Its GFP fluorescence, lower = active (kMESF (background-subtracted)) is 24.9 (inactive).

For `C=CCOc1ccc(C(=O)/C=C2/C(=O)Nc3ccccc32)cc1`, which GFP fluorescence, lower = active (kMESF (background-subtracted)) is on record?
The GFP fluorescence, lower = active (kMESF (background-subtracted)) was 37.9 (inactive).

With `COc1cccc(/C=C2\SC(=S)N(CCCC(=O)Nc3ccc(C(=O)O)cc3)C2=O)c1` as the compound, how does the GFP fluorescence, lower = active (kMESF (background-subtracted)) read?
Its GFP fluorescence, lower = active (kMESF (background-subtracted)) is 38.2 (inactive).

With `Fc1cccc(Nc2ncnc3c2cnn3-c2ccccc2)c1` as the compound, how does the GFP fluorescence, lower = active (kMESF (background-subtracted)) read?
The GFP fluorescence, lower = active (kMESF (background-subtracted)) was 35.1 (inactive).

Which GFP fluorescence, lower = active (kMESF (background-subtracted)) does the source give for `Nc1c(C(=O)c2cccs2)sc2nsc(SCCN3CCCCC3)c12` here?
The GFP fluorescence, lower = active (kMESF (background-subtracted)) was 38.1 (inactive).

With `CC1=NOC(=O)/C1=C\c1ccc(-c2cc(Cl)ccc2Cl)o1` as the compound, how does the GFP fluorescence, lower = active (kMESF (background-subtracted)) read?
Its GFP fluorescence, lower = active (kMESF (background-subtracted)) is 39 (inactive).

With `CC(=O)[C@]1(O)Cc2c(O)c3c(c(O)c2[C@@H](O[C@H]2C[C@H](N)[C@H](O)[C@H](C)O2)C1)C(=O)c1ccccc1C3=O` as the compound, how does the GFP fluorescence, lower = active (kMESF (background-subtracted)) read?
Its GFP fluorescence, lower = active (kMESF (background-subtracted)) is 42 (inactive).

Which GFP fluorescence, lower = active (kMESF (background-subtracted)) does the source give for `Cc1ccc(NC(=O)c2ccc(Cl)c(N3C(=O)C=CC3=O)c2)cc1` here?
The GFP fluorescence, lower = active (kMESF (background-subtracted)) was 22.4 (inactive).

With `Cc1c(Br)c(=O)oc2c(Br)c(O)c(O)cc12` as the compound, how does the GFP fluorescence, lower = active (kMESF (background-subtracted)) read?
Its GFP fluorescence, lower = active (kMESF (background-subtracted)) is 38.1 (inactive).

With `CN(C)NC(=S)Nc1ccc(S(=O)(=O)N2CCCCC2)cc1` as the compound, how does the GFP fluorescence, lower = active (kMESF (background-subtracted)) read?
Its GFP fluorescence, lower = active (kMESF (background-subtracted)) is 44.8 (inactive).

For `COc1ccccc1N1C(=O)c2cccc3c(C(=O)O)ccc(c23)C1=O`, which GFP fluorescence, lower = active (kMESF (background-subtracted)) is on record?
The GFP fluorescence, lower = active (kMESF (background-subtracted)) was 44.8 (inactive).

With `COc1ccc(/C=C2/C(=O)ON=C2c2ccccc2)cc1OC` as the compound, how does the GFP fluorescence, lower = active (kMESF (background-subtracted)) read?
The GFP fluorescence, lower = active (kMESF (background-subtracted)) was 39.5 (inactive).

For `Cc1ccccc1[C@@]1(C)ON(c2ccccc2C(F)(F)F)C1=O`, which GFP fluorescence, lower = active (kMESF (background-subtracted)) is on record?
The GFP fluorescence, lower = active (kMESF (background-subtracted)) was 40.6 (inactive).

For `CCOc1ccc(C(C)=O)cc1N1C(=O)C2C3C=CC(O3)C2C1=O` (stereo unspecified), which GFP fluorescence, lower = active (kMESF (background-subtracted)) is on record?
The GFP fluorescence, lower = active (kMESF (background-subtracted)) was 42.4 (inactive).

Which GFP fluorescence, lower = active (kMESF (background-subtracted)) does the source give for `CC(=O)n1cc(C(C[N+](=O)[O-])SCCN)c2ccccc21` (stereo unspecified) here?
The GFP fluorescence, lower = active (kMESF (background-subtracted)) was 21.4 (inactive).

Which GFP fluorescence, lower = active (kMESF (background-subtracted)) does the source give for `COc1ccc(N=Cc2nc(-c3ccccc3)oc2OC(C)=O)cc1` here?
Its GFP fluorescence, lower = active (kMESF (background-subtracted)) is 40.2 (inactive).

For `CCOc1ccc(NC2=C(Cl)C(=O)N(Cc3ccccc3)C2=O)cc1`, which GFP fluorescence, lower = active (kMESF (background-subtracted)) is on record?
Its GFP fluorescence, lower = active (kMESF (background-subtracted)) is 44.3 (inactive).

With `Cc1ccc(/C=C/C(=O)c2ccc([N+](=O)[O-])o2)cc1` as the compound, how does the GFP fluorescence, lower = active (kMESF (background-subtracted)) read?
The GFP fluorescence, lower = active (kMESF (background-subtracted)) was 46.1 (inactive).

With `O=C(NC(=S)NNC(=O)c1ccc(Cl)cc1Cl)c1cccnc1` as the compound, how does the GFP fluorescence, lower = active (kMESF (background-subtracted)) read?
Its GFP fluorescence, lower = active (kMESF (background-subtracted)) is 18.7 (inactive).

Which GFP fluorescence, lower = active (kMESF (background-subtracted)) does the source give for `Oc1ccc(Br)cc1/C=N/Nc1ccccn1` here?
The GFP fluorescence, lower = active (kMESF (background-subtracted)) was 40.5 (inactive).

For `CCOC(=O)CSC1=NC(=O)/C(=C/c2ccc(Br)cc2)S1`, which GFP fluorescence, lower = active (kMESF (background-subtracted)) is on record?
Its GFP fluorescence, lower = active (kMESF (background-subtracted)) is 38.5 (inactive).

With `CC(=O)OC[C@]12CC[C@H]3[C@@](C)(CC[C@H]4C(C)(C)CCC[C@]34C)[C@@H]1C[C@H](C1=CC(=O)O[C@@H]1OC(C)=O)O2` as the compound, how does the GFP fluorescence, lower = active (kMESF (background-subtracted)) read?
The GFP fluorescence, lower = active (kMESF (background-subtracted)) was 18.7 (inactive).

With `O=C(/C=C/c1ccnc2ccccc12)c1cccs1` as the compound, how does the GFP fluorescence, lower = active (kMESF (background-subtracted)) read?
The GFP fluorescence, lower = active (kMESF (background-subtracted)) was 38 (inactive).

Which GFP fluorescence, lower = active (kMESF (background-subtracted)) does the source give for `COc1ccc(NC2=C(Cl)C(=O)N(CCc3ccccc3)C2=O)c(OC)c1` here?
The GFP fluorescence, lower = active (kMESF (background-subtracted)) was 39.1 (inactive).
